ELF concentrations data for one compound are collected here from US20190105337A1, “METHODS OF TREATING BACTERIAL INFECTIONS” (priority 2015, published 2019).

A short description of this series: Example 6: plasma, epithelial lining fluid (ELF) and alveolar macrophage (AM) concentrations at bronchoscopy with BAL. Conditions: 8-hour sampling time. Here is the method:
A total of twenty-five (n=25) male and female subjects who met the study entry criteria and completed all phases of the pharmacokinetic study were included in this pharmacokinetic analysis. […] Blood samples were collected to measure drug concentrations in plasma prior to (time 0), and at 1.5, 2.95, 3.083, 3.25, 3.5, 4, 6, and 8 hours after the start of a 3-hour intravenous infusion of the third combination dose.
Urea has been commonly used as an endogenous marker to estimate the apparent volume of ELF. Blood samples to determine plasma urea concentrations were obtained just prior to scheduled bronchoscopy. Aliquots of BAL were obtained to determine urea concentrations in BAL and cell count with differential. The standardized bronchoscopy with BAL procedure for the collection of intrapulmonary samples has been previously described in the references listed below.
(Reports MC14B-0013, MC14B-0015, MC14I-011, and MC14I-0012). The urea concentrations in plasma and BAL were performed with a microplate-based method with an 0-phthalaldehyde chromogenic solution at MicroConstants, Inc., San Diego, Calif.
The calculations of ELF volume and drug concentrations in ELF and AM were performed with BAL supernatant and pulmonary (alveolar) cells (“cell pellet”) from aspirates recovered from the 2nd, 3rd, and 4th instillations (BAL2). The concentration of drug (ABXELF) in the epithelial lining fluid (ELF) was determined as follows:
[…]
VELF is derived from the following:
where UreaBAL is the concentration of urea in BAL fluid and UreaP is the concentration of urea in plasma.
The concentration of drug (ABXAM) in the alveolar cells (AC) was determined as follows:
Differential cell count was performed to determine the number of macrophages present. A mean macrophage cell volume of 2.42 μl/106 cells was used in the calculations for volume of alveolar cells in the pellet suspension.
The concentration ratios of ELF and AM to the simultaneous plasma concentrations were calculated for each subject and summarized for each group at each sampling time. […] The 8-hour sampling time was also used as a value at time zero for determining the area term of plasma, ELF, and AM. The AUC0-8 for each matrix was determined with the linear trapezoidal method. The ratio of AUC0-8 of ELF to plasma and AM to plasma were calculated.

Consider `C[C@@H](O)[C@@H](C(=O)O)[C@@H]1NC(C(=O)O)=C(S[C@@H]2CN[C@H](C(=O)N(C)C)C2)[C@@H]1C` [meropenem open-lactam], for which the ELF concentrations result is recorded as “below the quantifiable limit”.
